The structures appear in SMILES notation.

The subject of one assay is HCC1954 cells. Kind of assay: HCC1954 cell proliferation (Cell Titer-Glo, 6 days). Format: cell-based. The settings on record: KIF18A-sensitive tumor cells. As to the method: The inhibitory effect on the KIF18A target by the compounds of the present disclosure was evaluated by testing the inhibitory effect on proliferation of HCC1954 and HCC1395 cells by the compounds of the present disclosure.
HCC1954 (ATCC, CRL-2388) and HCC1395 (ATCC, CRL-2324) cells were cultured separately in RPMI-1640 complete medium (Gibco, A1049101) containing 20% fetal bovine serum (Gibco, 10099141C), 100 U penicillin, and 100 μg/mL streptomycin (Gibco, 15140-122). The Promega kit Cell Titer-Glo (Promega: G7572) was used in this method for test. • 1. HCC1954 (KIF18A-sensitive tumor cells) and HCC1395 (KIF18A-insensitive tumor cells) were cultured separately in T75 cell culture flasks (Corning, 430641), and the medium was placed in a 37° C., 5% CO2 incubator. • 2. When the cell density reached 70% to 80% (about 2 to 3 times per week), cells are passaged with trypsin (0.25% EDTA). • 3. The cell culture flask was taken out and the cells were separated by adding 2 mL of trypsin (0.25% EDTA source) for 5 minutes. • 4. Digestion was stopped by adding 8 mL of RPM1-1640 medium and the cell suspension was transferred to a centrifuge tube and centrifuged at 1000 rpm for 5 minutes. • 5. The cells were resuspended with 5 mL of RPMI-1640 medium. Cell density was adjusted to 5×10^3/mL (HCC1954), and 2.5×10^4/mL (HCC1395), respectively. • 6. 40 μL of cell solution was added to the 384-well plate (Corning, 3765). • 7. The 384-well plate was centrifuged at 1000 rpm for 1 minute. • 8. The cells were cultured overnight in a 37° C., 5% CO2 incubator. • 9. The next day, 40 nL of compound solution was added to the 384-well plate using Echo650. The plate was then placed in a 37° C., 5% CO2 incubator for 6 days. • 10. After 6 days, 20 μL of Cell-Titer-Glo (Promega, G7572) reagent was added per well. • 11. Luminescence values were measured using the EnVision Xcite Multilabel Reader (PerkinElmer, 2105-0020).
The percentage of inhibition of cell proliferation by the test compound at each concentration was calculated by comparing with the values of the control group (0.1% DMSO). The IC50 values of the compounds were obtained by concentration-inhibition rate nonlinear regression analysis of the test compounds using GraphPad Prism 9.
In general terms: Cellular ATP, detected with luciferase, serves as a proxy for viable cell number.

The test system of another assay is OVCAR3 tumor. Description: OVCAR3 human ovarian cancer subcutaneous transplant tumor model. It is filed as in vivo, mouse. The following applies: oral, QD, 28 days, balb/c nude mice. The source says: • I. Experimental objective: evaluation of the pharmacological effects of the reference compounds and the compounds of the present disclosure in the OVCAR3 human ovarian cancer subcutaneous transplant tumor model. • II. Experimental material: experimental female balb/c nude mice, 6-8-week old or 18-20 g, provided by Vital River Laboratory Animal Technology Co., Ltd. • III. Experimental method: Experimental animals were housed within a specific pathogen-free animal barrier facility, and the experiment was started 3 days after the animals were acclimated. The human ovarian cancer OVCAR3 tumor cells were cultured in vitro as monolayers in RPMI 1640 complete medium (supplemented with a final concentration of 20% fetal bovine serum, 1% penicillin-streptomycin dual antibiotics, and 0.01 mg/ml insulin) at 37° C. in an atmosphere containing 5% CO2. The tumor cells were routinely passaged 2-3 times per week, and the cells in the exponential growth phase were collected and counted for tumor cell inoculation. 10×10^6 OVCAR3 tumor cells were resuspended in 0.1 m1 PBS and mixed with 0.1 m1 matrigel and then subcutaneously inoculated into the right flank of each mouse to establish tumors. When the mean tumor volume of the tumor-bearing mice grew to around 100 mm^3, the appropriate tumor-bearing mice were selected for randomization and the groups were set as: blank control groups, reference compound groups, and groups of compounds of the present disclosure. Vehicles were administered orally in the blank control group, and the corresponding compounds were administered orally in the other groups for 28 days. Tumor volumes and animal weights were monitored […], twice weekly. This experiment examined the inhibitory effect of the reference compound and the compound of the present disclosure on the growth of OVCAR3 human ovarian cancer cells by monitoring the size of the tumor volume of each group after administration of the compounds.

Broadly, the IC50 is the midpoint of a concentration-inhibition curve. In the assay on HCC1954 cells, `Nc1cc(NS(=O)(=O)CCO)cc(N2CCC3(CC2)CC3)c1C(=O)Nc1cccc(N2CCC(F)(F)CC2)c1` [Example 1, 2-amino-N-(3-(4,4-difluoropiperidin-1-yl)phenyl)-4-((2-hydroxyethyl)sulfonamide)-6-(6-azaspiro[2.5]octan-6-yl)benzamide] returned an IC50 of at most 0.01 µM.

On to `CNc1cc(NS(=O)(=O)CCO)cc(N2CCC3(CC2)CC3)c1C(=O)Nc1cc(C)nc(N2CCC(F)(F)CC2)n1` [Example 4, N-(2-(4,4-difluoropiperidin-1-yl)-6-methylpyrimidin-4-yl)-4-(2-hydroxyethylsulfonamide)-2-methylamino-6-(6-azaspiro[2.5]octan-6-yl)benzamide], for which the IC50 in the assay on HCC1954 cells is at most 0.01 µM. Consider `O=C(Nc1cccc2c1cc1n2CCOC1)c1ccc(NS(=O)(=O)CCO)cc1N1CCC2(CC1)CC2` [Example 235, N-(3,4-dihydro-1H-[1, 4]oxazino[4,3-a]indol-9-yl)-4-(2-hydroxyethylsulfonamido)-2-(6-azaspiro[2.5]octan-6-yl)benzamide], for which the half-maximal inhibitory concentration (IC50) in the assay with HCC1954 cells (Homo sapiens, HCC1954, 144 h) is at most 0.01 µM. `O=C(Nc1cccc2c1cc1n2CCOC1)c1ccc(NS(=O)(=O)CCO)cc1N1CCC(=C(F)F)CC1` [Example 319, 2-(4-difluoromethylene)piperidin-1-yl-N-(3,4-dihydro-1H-[1,4]oxazino[4,3-a]indol-9-yl)-4-((2-hydroxyethyl)sulfonamide) benzamide] showed an IC50 in the assay on HCC1954 cells of 0.01 to 0.5 µM.

Regarding `CC1(C)Cn2c(cc3c(NC(=O)c4ccc(NS(=O)(=O)CCO)cc4N4CCC5(CC4)CC5)cccc32)CO1` [Example 371, N-(3,3-dimethyl-3,4-dihydro-1H-[1,4]oxazino[4,3-a]indol-9-yl)-4-(2-hydroxyethylsulfonamido)-2-(6-azaspiro[2.5]octan-6-yl)benzamide], the “inhibition rate on OVCAR3 tumor growth” value in the assay on OVCAR3 tumor (10 mg/kg) was 94%-98%; in the assay on OVCAR3 tumor (30 mg/kg) it was “about 110%”. Regarding `COc1ccc(NC(=O)c2ccc(NS(=O)(=O)CCO)cc2N2CCC3(CC2)CC3)c2cc3n(c12)CC(C)(C)OC3` [Example 455, 4-((2-hydroxyethyl)sulfonamido)-N-(6-methoxy-3,3-dimethyl-3,4-dihydro-1H-[1,4]oxazinyl[4,3-a]indol-9-yl)-2-(6-azaspiro[2.5]oct-6-yl)benzamide], the “inhibition rate on OVCAR3 tumor growth” value in the assay with OVCAR3 tumor (10 mg/kg) is on record as 94%-98%.

Turning to `COc1ccc(NC(=O)c2ccc(NS(=O)(=O)CCO)cc2N2CCC(=C(F)F)CC2)c2cc3n(c12)CC(C)(C)OC3` [Example 465, 2-(4-(difluoromethylene)piperidin-1-yl)-4-((2-hydroxyethyl)sulfonamido)-N-(6-methoxy-3,3-dimethyl-3,4-dihydro-1H-[1,4]oxazinyl[4,3-a]indol-9-yl)benzamide], in the assay on OVCAR3 tumor (10 mg/kg), the “inhibition rate on OVCAR3 tumor growth” value is recorded as 60%-70%.
